Reference: patent US8685974B2 (Bayer CropScience AG, priority 2009, dated 2014)
Where two headings read alike, the source gives them in different places. Marks after values point to notes of the source that are not given here.

Columns and labels:
[1] = system: Alternaria solani; experiment: Alternaria test (tomato) / protective; assay type: in vivo; details: 500 ppm active compound, protective spray, evaluated 7 days after inoculation
Experimental: Alternaria Test (Tomato)/Protective
Solvent: 49 parts by weight of N,N-dimethylformamide
Emulsifier: 1 part by weight of alkylaryl polyglycol ether
To produce a suitable preparation of active compound, 1 part by weight of active compound is mixed with the stated amounts of solvent and emulsifier, and the concentrate is diluted with water to the desired concentration.
To test for protective activity, young tomato plants are sprayed with the preparation of active compound at the stated application rate. […] The plants then remain at 96% rel. atmospheric humidity and a temperature of 20° C.
Evaluation is carried out 7 days after the inoculation. 0% means an efficacy which corresponds to that of the control, whereas an efficacy of 100% means that no infection is observed.

[2] = system: Fusarium graminearum; assay type: cell-based; details: 50 μM; for % Inhibition of DON/AcDON at 50 μM: 7 days at 28° C.

Compound: CC(C)Cn1cc(-c2ccnc(N)c2)c(-c2ccc(Cl)s2)n1 [Example 76]
- efficacy [1]: 89%
- logP value of the minor isomer (in parenthesis in column Isomer ratio [d]) (minor isomer, main value of the example measured by method [a], pH 2.3): (1.93)
- log p (pH 2.3): 2.04^[a]

Compound: CC(C)Cn1cc(-c2ccnc(N(C(=O)C3CC3)C(=O)C3CC3)c2)c(-c2ccc(Cl)s2)n1 [Example 82]
- efficacy [1]: 78%
- log p (pH 2.3): 4.75^[a]

Compound: CCCc1c(-c2ccncc2)c(-c2sccc2C)nn1C [Example 165]
- efficacy [1]: 70%
- log p (pH 2.7): 1.31^[b]
- logP value of the minor isomer (pH 2.7): 1.46^[b])
- log p (pH 7.8): 2.59^[c];
- logP value of the minor isomer (pH 7.8): (2.79^[c];

Compound: CCC(C)n1nc(-c2ccc(Cl)s2)c(-c2ccncc2)c1Cl (stereo not drawn) [Example 201]
- efficacy [1]: 78%
- % Inhibition of fungal growth at 50 μM [2]: 39%
- % Inhibition of DON/AcDON at 50 μM [2]: 94%
- log p (pH 2.7): 3.44^[b]

Compound: CCC(C)n1cc(-c2ccnc(NC(=O)OC(C)C)c2)c(-c2ccc(Cl)s2)n1 (stereo not drawn) [Example 239]
- efficacy [1]: 80%
- log p (pH 2.7): 4.33^[b]

Compound: CC(C)n1cc(-c2ccnc(NC(=O)c3ccccc3)c2)c(-c2ccc(Cl)s2)n1 [Example 260]
- efficacy [1]: 80%
- log p (pH 2.7): 4.03^[b]

Compound: CC(C)n1cc(-c2ccncc2)c(-c2cccs2)n1 [Example 300]
- efficacy [1]: 95%
- % Inhibition of fungal growth at 50 μM [2]: 100%
- % Inhibition of DON/AcDON at 50 μM [2]: 99%
- log p (pH 2.7): 1.27^[b]

Compound: Cn1cc(-c2ccnc(N)c2)c(-c2ccc(Cl)s2)n1 [Example 305]
- efficacy [1]: 70%
- log p (pH 2.7): 1.34^[b]

Compound: N#CCCn1cc(-c2ccncc2)c(-c2ccc(Cl)s2)n1 [Example 322]
- % Inhibition of fungal growth at 50 μM [2]: 0%
- % Inhibition of DON/AcDON at 50 μM [2]: 99%
- log p (pH 2.7): 0.98^[b]

Compound: Clc1ccc(Cn2cc(-c3ccncc3)c(-c3ccc(Cl)s3)n2)s1 [Example 323]
- efficacy [1]: 78%
- % Inhibition of fungal growth at 50 μM [2]: 6%
- % Inhibition of DON/AcDON at 50 μM [2]: 94%
- log p (pH 2.7): 2.64^[b]

Compound: CC1(Cn2cc(-c3ccncc3)c(-c3ccc(Cl)s3)n2)CC1(Cl)Cl (stereo not drawn) [Example 324]
- % Inhibition of fungal growth at 50 μM [2]: 0%
- % Inhibition of DON/AcDON at 50 μM [2]: 93%
- log p (pH 2.7): 2.71^[b]

Compound: CCC(C)n1cc(-c2ccncc2)c(-c2cc3ccsc3s2)n1 (stereo not drawn) [Example 328]
- efficacy [1]: 94%
- % Inhibition of fungal growth at 50 μM [2]: 100%
- % Inhibition of DON/AcDON at 50 μM [2]: 98%
- log p (pH 2.7): 2.07^[b]

Compound: CCn1cc(-c2ccncc2)c(-c2cc3ccsc3s2)n1 [Example 329]
- efficacy [1]: 94%
- % Inhibition of fungal growth at 50 μM [2]: 85%
- % Inhibition of DON/AcDON at 50 μM [2]: 98%
- log p (pH 2.7): 1.57^[b]

Compound: FC(F)(F)Cn1cc(-c2ccncc2)c(-c2cc3ccsc3s2)n1 [Example 330]
- efficacy [1]: 94%
- % Inhibition of fungal growth at 50 μM [2]: 31%
- % Inhibition of DON/AcDON at 50 μM [2]: 94%
- log p (pH 2.7): 1.91^[b]

Compound: c1cc(-c2cn(C3CCCC3)nc2-c2cc3ccsc3s2)ccn1 [Example 332]
- efficacy [1]: 94%
- log p (pH 2.7): 2.25^[b]

Compound: CCC(CC)n1cc(-c2ccncc2)c(-c2cc3ccsc3s2)n1 [Example 333]
- efficacy [1]: 94%
- % Inhibition of fungal growth at 50 μM [2]: 86%
- % Inhibition of DON/AcDON at 50 μM [2]: 98%
- log p (pH 2.7): 2.3^[b]

Compound: CC(C)(C)Cn1cc(-c2ccncc2)c(-c2cc3ccsc3s2)n1 [Example 334]
- efficacy [1]: 78%
- log p (pH 2.7): 2.35^[b]

Compound: CCOCCn1cc(-c2ccncc2)c(-c2cc3ccsc3s2)n1 [Example 337]
- efficacy [1]: 94%
- % Inhibition of fungal growth at 50 μM [2]: 100%
- % Inhibition of DON/AcDON at 50 μM [2]: 99%
- log p (pH 2.7): 1.7^[b]

Compound: N#CCCn1cc(-c2ccncc2)c(-c2cc3ccsc3s2)n1 [Example 338]
- % Inhibition of fungal growth at 50 μM [2]: 50%
- % Inhibition of DON/AcDON at 50 μM [2]: 99%
- log p (pH 2.7): 1.07^[b]

Compound: Fc1ccc(-c2nn(Cc3ccc(Cl)s3)cc2-c2ccncc2)s1 [Example 341]
- % Inhibition of fungal growth at 50 μM [2]: 55%
- % Inhibition of DON/AcDON at 50 μM [2]: 96%
- log p (pH 2.7): 2.34^[b]

Compound: CC1(Cn2cc(-c3ccncc3)c(-c3ccc(F)s3)n2)CC1(Cl)Cl (stereo not drawn) [Example 342]
- efficacy [1]: 89%
- % Inhibition of fungal growth at 50 μM [2]: 23%
- % Inhibition of DON/AcDON at 50 μM [2]: 97%
- log p (pH 2.7): 2.39^[b]

Compound: Fc1ccc(-c2nn(C3CCCC3)cc2-c2ccncc2)s1 [Example 344]
- efficacy [1]: 94%
- % Inhibition of fungal growth at 50 μM [2]: 91%
- % Inhibition of DON/AcDON at 50 μM [2]: 98%
- log p (pH 2.7): 2.02^[b]

Compound: CC(C)(C)Cn1cc(-c2ccncc2)c(-c2ccc(F)s2)n1 [Example 345]
- efficacy [1]: 94%
- % Inhibition of fungal growth at 50 μM [2]: 63%
- % Inhibition of DON/AcDON at 50 μM [2]: 97%
- log p (pH 2.7): 2.11^[b]

Compound: CC(C)(C)Cn1cc(-c2ccncc2)c(-c2ccc(Br)s2)n1 [Example 347]
- efficacy [1]: 70%
- % Inhibition of fungal growth at 50 μM [2]: 79%
- % Inhibition of DON/AcDON at 50 μM [2]: 99%
- log p (pH 2.7): 2.46^[b]

Compound: N#CCn1cc(-c2ccncc2)c(-c2ccc(Br)s2)n1 [Example 348]
- % Inhibition of fungal growth at 50 μM [2]: 45%
- % Inhibition of DON/AcDON at 50 μM [2]: 99%
- log p (pH 2.7): 1.51^[b]

Compound: CCOCCn1cc(-c2ccncc2)c(-c2ccc(Br)s2)n1 [Example 349]
- % Inhibition of fungal growth at 50 μM [2]: 95%
- % Inhibition of DON/AcDON at 50 μM [2]: 99%
- log p (pH 2.7): 1.75^[b]

Compound: Clc1ccc(Cn2cc(-c3ccncc3)c(-c3ccc(Br)s3)n2)s1 [Example 351]
- % Inhibition of fungal growth at 50 μM [2]: 36%
- % Inhibition of DON/AcDON at 50 μM [2]: 99%
- log p (pH 2.7): 2.69^[b]

Compound: Fc1cccc(Cn2cc(-c3ccncc3)c(-c3ccc(Br)s3)n2)c1F [Example 353]
- efficacy [1]: 78%
- log p (pH 2.7): 2.44^[b]

Compound: Brc1ccc(-c2nn(C3CCCC3)cc2-c2ccncc2)s1 [Example 356]
- % Inhibition of fungal growth at 50 μM [2]: 75%
- % Inhibition of DON/AcDON at 50 μM [2]: 97%
- log p (pH 2.7): 2.37^[b]

Compound: O=C1OCCC1n1cc(-c2ccncc2)c(-c2ccc(Cl)s2)n1 (stereo not drawn) [Example 365]
- efficacy [1]: 78%
- % Inhibition of fungal growth at 50 μM [2]: 100%
- % Inhibition of DON/AcDON at 50 μM [2]: 90%
- log p (pH 2.7): 1.48^[b]

Compound: CC(C)n1cc(-c2ccncc2)c(-c2cc3ccsc3s2)n1 [Example 366]
- efficacy [1]: 78%
- % Inhibition of fungal growth at 50 μM [2]: 93%
- % Inhibition of DON/AcDON at 50 μM [2]: 98%
- log p (pH 2.7): 1.79^[b]

Compound: FCCn1cc(-c2ccncc2)c(-c2cc3ccsc3s2)n1 [Example 367]
- efficacy [1]: 78%
- % Inhibition of fungal growth at 50 μM [2]: 78%
- % Inhibition of DON/AcDON at 50 μM [2]: 99%
- log p (pH 2.7): 1.45^[b]

Compound: C=CC(C)n1cc(-c2ccncc2)c(-c2cc3ccsc3s2)n1 (stereo not drawn) [Example 368]
- efficacy [1]: 78%
- % Inhibition of fungal growth at 50 μM [2]: 100%
- % Inhibition of DON/AcDON at 50 μM [2]: 99%
- log p (pH 2.7): 1.94^[b]

Compound: CC(C)Cn1cc(-c2ccncc2)c(-c2cc3ccsc3s2)n1 [Example 369]
- efficacy [1]: 94%
- % Inhibition of fungal growth at 50 μM [2]: 100%
- % Inhibition of DON/AcDON at 50 μM [2]: 99%
- log p (pH 2.7): 2.04^[b]

Compound: ClCCn1cc(-c2ccncc2)c(-c2cc3ccsc3s2)n1 [Example 370]
- % Inhibition of fungal growth at 50 μM [2]: 70%
- % Inhibition of DON/AcDON at 50 μM [2]: 99%
- log p (pH 2.7): 1.7^[b]

Compound: FC(F)Cn1cc(-c2ccncc2)c(-c2cc3ccsc3s2)n1 [Example 371]
- efficacy [1]: 78%
- % Inhibition of fungal growth at 50 μM [2]: 82%
- % Inhibition of DON/AcDON at 50 μM [2]: 99%
- log p (pH 2.7): 1.63^[b]

Compound: O=C1OCCC1n1cc(-c2ccncc2)c(-c2cc3ccsc3s2)n1 (stereo not drawn) [Example 372]
- % Inhibition of fungal growth at 50 μM [2]: 1%
- % Inhibition of DON/AcDON at 50 μM [2]: 98%
- log p (pH 2.7): 1.49^[b]

Compound: Fc1ccc(-c2nn(CC(F)F)cc2-c2ccncc2)s1 [Example 373]
- efficacy [1]: 100%
- % Inhibition of fungal growth at 50 μM [2]: 97%
- % Inhibition of DON/AcDON at 50 μM [2]: 99%
- log p (pH 2.7): 1.34^[b]

Compound: CCOCCn1cc(-c2ccncc2)c(-c2ccc(F)s2)n1 [Example 374]
- efficacy [1]: 94%
- % Inhibition of fungal growth at 50 μM [2]: 58%
- % Inhibition of DON/AcDON at 50 μM [2]: 99%
- log p (pH 2.7): 1.43^[b]

Compound: FCCn1cc(-c2ccncc2)c(-c2ccc(F)s2)n1 [Example 375]
- efficacy [1]: 100%
- % Inhibition of fungal growth at 50 μM [2]: 78%
- % Inhibition of DON/AcDON at 50 μM [2]: 99%
- log p (pH 2.7): 1.16^[b]

Compound: C=CC(C)n1cc(-c2ccncc2)c(-c2ccc(F)s2)n1 (stereo not drawn) [Example 376]
- efficacy [1]: 100%
- % Inhibition of fungal growth at 50 μM [2]: 84%
- % Inhibition of DON/AcDON at 50 μM [2]: 99%
- log p (pH 2.7): 1.73^[b]

Compound: CCn1cc(-c2ccncc2)c(-c2ccc(F)s2)n1 [Example 377]
- efficacy [1]: 100%
- % Inhibition of fungal growth at 50 μM [2]: 89%
- % Inhibition of DON/AcDON at 50 μM [2]: 99%
- log p (pH 2.7): 1.28^[b]
- logP value of the minor isomer (pH 2.7): (1.22)

Compound: Fc1ccc(-c2nn(CC(F)(F)F)cc2-c2ccncc2)s1 [Example 378]
- efficacy [1]: 100%
- % Inhibition of fungal growth at 50 μM [2]: 54%
- % Inhibition of DON/AcDON at 50 μM [2]: 99%
- log p (pH 2.7): 1.64^[b]
- logP value of the minor isomer (pH 2.7): (1.46)

Compound: CC(C)Cn1cc(-c2ccncc2)c(-c2ccc(F)s2)n1 [Example 379]
- efficacy [1]: 94%
- % Inhibition of fungal growth at 50 μM [2]: 90%
- % Inhibition of DON/AcDON at 50 μM [2]: 99%
- log p (pH 2.7): 1.82^[b]
- logP value of the minor isomer (pH 2.7): (1.72)

Compound: ClCCn1cc(-c2ccncc2)c(-c2ccc(Br)s2)n1 [Example 393]
- % Inhibition of fungal growth at 50 μM [2]: 96%
- % Inhibition of DON/AcDON at 50 μM [2]: 99%
- log p (pH 2.7): 1.78^[b]
- logP value of the minor isomer (pH 2.7): (1.61)

Compound: CC(C)Cn1ncc(-c2ccncc2)c1-c1ccc(Br)s1 [Example 406]
- % Inhibition of fungal growth at 50 μM [2]: 0%
- % Inhibition of DON/AcDON at 50 μM [2]: 95%
- log p (pH 2.7): 1.91^[b]
